Measured values published in ChEMBL document CHEMBL4651402, “Screening of ~5500 FDA-approved drugs and clinical candidates for anti-SARS-CoV-2 activity” (2021).
pIC50: −log10 of the molar value.

System: SARS-CoV-2
Assay: microbe, parasite or virus in culture
Details: Severe acute respiratory syndrome coronavirus 2, Vero C1008, 48 h; for IC50: read-out: pIC50 (converted)

SMILES | pIC50 | IC50
CC(=O)[C@]1(N)Cc2c(O)c3c(c(O)c2[C@@H](O[C@H]2C[C@H](O)[C@H](O)CO2)C1)C(=O)c1ccccc1C3=O [AMRUBICIN] | < 4.70 | > 20 µM
COc1cc(NS(C)(=O)=O)ccc1Nc1c2ccccc2nc2ccccc12 [AMSACRINE] | < 4.70 | > 20 µM
S=C(NCc1ccc2c(c1)OCO2)N1CCN(c2ncnc3c2oc2ccccc23)CC1 [AMUVATINIB] | < 4.70 | > 20 µM
CCC(C)(C)O [AMYLENE HYDRATE] | < 4.70 | > 20 µM
CCCCCc1ccc(C)cc1O [AMYLMETACRESOL] | < 4.70 | > 20 µM
CCC(C)(CN(C)C)OC(=O)c1ccccc1 (stereo not drawn) [AMYLOCAINE] | < 4.70 | > 20 µM
CCCC(=O)OCOC(=O)C(C)(C)C [AN-9] | < 4.70 | > 20 µM
c1cncc([C@@H]2CCCCN2)c1 [ANABASINE] | < 4.70 | > 20 µM
COc1cc(F)c(C(C)C)cc1-c1ccc(C(F)(F)F)cc1CN1C(=O)O[C@H](c2cc(C(F)(F)F)cc(C(F)(F)F)c2)[C@@H]1C [ANACETRAPIB] | < 4.70 | > 20 µM
O=C1CN2Cc3c(ccc(Cl)c3Cl)N=C2N1 [ANAGRELIDE] | < 4.70 | > 20 µM
CCCCC/C=C\C/C=C\C/C=C\C/C=C\CCCC(=O)NCCO [ANANDAMIDE] | < 4.70 | > 20 µM
N=c1ccn2c(n1)O[C@H]1[C@H](O)[C@@H](CO)O[C@H]12 [ANCITABINE] | < 4.70 | > 20 µM
C[C@]12CCC(=O)C=C1CC[C@@H]1[C@@H]2CC[C@]2(C)C(=O)CC[C@@H]12 [ANDROSTENEDIONE] | < 4.70 | > 20 µM
COc1ccc(-c2cc(=S)ss2)cc1 [ANETHOLTRITHION] | < 4.70 | > 20 µM
CCOC(=O)C1(c2ccccc2)CCN(CCc2ccc(N)cc2)CC1 [ANILERIDINE] | < 4.70 | > 20 µM
COc1ccc(C2C(=O)c3ccccc3C2=O)cc1 [ANISINDIONE] | < 4.70 | > 20 µM
COc1ccc(C[C@H]2NC[C@H](O)[C@H]2OC(C)=O)cc1 [ANISOMYCIN] | < 4.70 | > 20 µM
COc1ccccc1N1CCN(CCCC(O)c2ccc(F)cc2)CC1 (stereo not drawn) [ANISOPIROL] | < 4.70 | > 20 µM
CCCC(CCC)C(=O)O[C@H]1C[C@H]2CC[C@@H](C1)[N+]2(C)C [ANISOTROPINE] | < 4.70 | > 20 µM
COc1ccc(-c2nnc(C)nc2-c2ccc(OC)cc2)cc1 [ANITRAZAFEN] | < 4.70 | > 20 µM
c1ccc(CN(CC2=NCCN2)c2ccccc2)cc1 [ANTAZOLINE] | < 4.70 | > 20 µM
Cc1cc(=O)n(-c2ccccc2)n1C [ANTIPYRINE] | < 4.70 | > 20 µM
COc1cc(OC)c2c(=O)[nH]c(-c3cc(C)c(OCCO)c(C)c3)nc2c1 [APABETALONE] | < 4.70 | > 20 µM
CCNC(=O)[C@H]1O[C@@H](n2cnc3c(N)nc(C#CC[C@H]4CC[C@H](C(=O)OC)CC4)nc32)[C@H](O)[C@@H]1O [APADENOSON] | < 4.30 | > 50.1 µM
CNC(=O)c1ccc(N2C(=S)N(c3cnc(C#N)c(C(F)(F)F)c3)C(=O)C23CCC3)cc1F [APALUTAMIDE] | < 4.70 | > 20 µM
CCCC1C(=O)N2C(N(C)C)=Nc3ccc(C)cc3N2C1=O (stereo not drawn) [APAZONE] | < 4.70 | > 20 µM
O=c1cc(-c2ccc(O)cc2)oc2cc(O)cc(O)c12 [APIGENIN] | < 4.70 | > 20 µM

SMILES | pIC50 | IC50
Cc1cccc(/C=N/Nc2cc(N3CCOCC3)nc(OCCc3ccccn3)n2)c1 [APILIMOD] | < 4.70 | > 20 µM
C=CCc1cc(OC)c2c(c1OC)OCO2 [APIOL] | < 4.70 | > 20 µM
Cc1c(CN2CCN(C(=O)[C@H](C)O)CC2)sc2c(N3CCOCC3)nc(-c3cnc(N)nc3)nc12 [APITOLISIB] | < 4.70 | > 20 µM
COc1ccc(-n2nc(C(N)=O)c3c2C(=O)N(c2ccc(N4CCCCC4=O)cc2)CC3)cc1 [APIXABAN] | < 4.70 | > 20 µM
COc1cc(C(C)=O)ccc1O [APOCYNIN] | < 4.70 | > 20 µM
CN1CCc2cccc3c2[C@H]1Cc1ccc(O)c(O)c1-3 [APOMORPHINE] | < 4.70 | > 20 µM
Nc1cc(Cl)c(N=C2NCCN2)c(Cl)c1 [APRACLONIDINE] | < 4.70 | > 20 µM
C[C@@H](O[C@H]1OCCN(Cc2n[nH]c(=O)[nH]2)[C@H]1c1ccc(F)cc1)c1cc(C(F)(F)F)cc(C(F)(F)F)c1 [APREPITANT] | < 4.70 | > 20 µM
C=CCC1(C(C)C)C(=O)NC(=O)NC1=O [APROBARBITAL] | < 4.70 | > 20 µM
CCN(CC)CCOC(=O)C(C)(c1ccccc1)c1ccccc1 [APROFENE] | < 4.70 | > 20 µM
O=c1ccn([C@@H]2O[C@H](CO)[C@@H](O)[C@@H]2O)c(=O)[nH]1 [ARAURIDINE] | < 4.70 | > 20 µM
OC[C@H]1O[C@@H](Oc2ccc(O)cc2)[C@H](O)[C@@H](O)[C@@H]1O [ARBUTIN] | < 4.70 | > 20 µM
N=C(N)NCCCCNC(=N)N [ARCAINE] | < 4.70 | > 20 µM
COC(=O)C1=CCCN(C)C1 [ARECOLINE] | < 4.70 | > 20 µM
CCOC(=O)N1CCC(=O)N(c2ccccc2)c2cc(Cl)ccc21 [ARFENDAZAM] | < 4.70 | > 20 µM
CC1CNc2c(cccc2S(=O)(=O)N[C@@H](CCCNC(=N)N)C(=O)N2CC[C@@H](C)C[C@@H]2C(=O)O)C1 (stereo partly drawn) [ARGATROBAN] | < 4.70 | > 20 µM
C=C1C(=O)O[C@@H]2[C@H]3C(C)=CC[C@@]34O[C@@]4(C)CC[C@@H]12 [ARGLABIN] | < 4.70 | > 20 µM
CC(=O)NCCOC(=O)[C@H](Oc1cccc(C(F)(F)F)c1)c1ccc(Cl)cc1 [ARHALOFENATE] | < 4.70 | > 20 µM
CCCn1c(=O)c2[nH]cnc2n(-c2ccc(Cl)cc2)c1=O [AROFYLLINE] | < 4.70 | > 20 µM
CCN(CC)CC#CCOC(=O)[C@](O)(c1ccccc1)C1CCCCC1 [AROXYBUTYNIN] | < 4.70 | > 20 µM
C[C@@H]1CC[C@H]2[C@@H](C)C(=O)O[C@@H]3O[C@@]4(C)CC[C@@H]1[C@]32OO4 [ARTEMISININ] | < 4.70 | > 20 µM
C[C@H]1[C@H](OC(=O)CCC(=O)O)O[C@@H]2O[C@@]3(C)CC[C@H]4[C@H](C)CC[C@@H]1[C@@]24OO3 [ARTESUNATE] | < 4.70 | > 20 µM
CCCNC(C)C(=O)Nc1c(C)csc1C(=O)OC (stereo not drawn) [ARTICAINE] | < 4.70 | > 20 µM
c1ccc2c(Cc3c[nH]c4ccccc34)c[nH]c2c1 [ARUNDINE] | < 4.70 | > 20 µM
c1cc2c(cc1[C@H]1OC[C@H]3[C@@H]1CO[C@H]3c1ccc3c(c1)OCO3)OCO2 [ASARININ] | < 4.70 | > 20 µM
O=C1O[C@H]([C@@H](O)CO)C(O)=C1O [ASCORBIC ACID] | < 4.70 | > 20 µM
CN(C(=O)C(c1ccccc1)c1ccccc1)[C@H](CN1CC[C@H](O)C1)c1ccccc1 [ASIMADOLINE] | < 4.70 | > 20 µM
